Assay results taken from patent US6545049B1, “Dimer-selective RXR modulators and methods for their use” (Ligand Pharmaceuticals Incorporated, priority 1995, dated 2003).
pEC50, pKd: −log10 of the molar value.

Experiments:
RXRα:PPARα heterodimer = molecular target: T1, RXRα:PPARα heterodimer (Homo sapiens, UniProt P19793); experiment: RXR heterodimer co-transfection assay (RXRα and PPARα, PPARα response element reporter)
T1 sequence (P19793 1-462): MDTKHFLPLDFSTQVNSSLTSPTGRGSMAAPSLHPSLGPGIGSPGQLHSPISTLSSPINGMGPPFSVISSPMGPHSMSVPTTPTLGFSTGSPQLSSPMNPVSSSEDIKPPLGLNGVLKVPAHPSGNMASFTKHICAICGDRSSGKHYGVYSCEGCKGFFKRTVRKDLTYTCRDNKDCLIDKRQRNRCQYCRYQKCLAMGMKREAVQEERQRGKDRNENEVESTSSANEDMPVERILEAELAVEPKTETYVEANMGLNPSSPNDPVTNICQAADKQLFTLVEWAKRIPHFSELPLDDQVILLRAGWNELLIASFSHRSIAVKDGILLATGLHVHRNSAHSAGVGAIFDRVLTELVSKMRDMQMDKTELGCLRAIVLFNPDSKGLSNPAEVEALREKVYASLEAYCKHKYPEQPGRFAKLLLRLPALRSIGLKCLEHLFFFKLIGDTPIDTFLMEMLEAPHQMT
T1 sequence (Q07869 1-468 partner): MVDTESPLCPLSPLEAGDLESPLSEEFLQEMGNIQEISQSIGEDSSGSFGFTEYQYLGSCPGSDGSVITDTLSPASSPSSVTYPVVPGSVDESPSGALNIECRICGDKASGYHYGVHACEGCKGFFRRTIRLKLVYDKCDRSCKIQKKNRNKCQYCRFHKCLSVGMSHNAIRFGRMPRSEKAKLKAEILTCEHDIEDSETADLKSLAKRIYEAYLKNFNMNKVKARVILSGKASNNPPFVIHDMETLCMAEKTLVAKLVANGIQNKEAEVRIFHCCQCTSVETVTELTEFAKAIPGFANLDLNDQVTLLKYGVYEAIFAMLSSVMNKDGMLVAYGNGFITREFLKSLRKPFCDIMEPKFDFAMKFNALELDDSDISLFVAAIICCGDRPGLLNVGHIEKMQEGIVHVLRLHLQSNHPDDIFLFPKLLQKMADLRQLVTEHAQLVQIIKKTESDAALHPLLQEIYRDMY

RXR:RXR homodimer = molecular target: T2, RXR:RXR homodimer (Homo sapiens, UniProt P19793); experiment: RXR homodimer co-transfection assay (FIG. 1); settings: in the presence of known RXR activators (LGD1069, LG100268, 9-cis retinoic acid)
T2 sequence (P19793 1-462): T1 sequence (P19793 1-462)

RXRα = molecular target: T3, RXRα (Homo sapiens, UniProt P19793); experiment: RXR binding, RXRα; settings: -v- tritiated LGD1069 and tritiated 9-cis retinoic acid
T3 sequence (P19793 1-462): T1 sequence (P19793 1-462)

RXRβ = molecular target: T4, RXRβ (Mus musculus, UniProt P28704); experiment: RXR binding, RXRβ; settings: -v- tritiated LGD1069 and tritiated 9-cis retinoic acid
T4 sequence (P28704 1-520): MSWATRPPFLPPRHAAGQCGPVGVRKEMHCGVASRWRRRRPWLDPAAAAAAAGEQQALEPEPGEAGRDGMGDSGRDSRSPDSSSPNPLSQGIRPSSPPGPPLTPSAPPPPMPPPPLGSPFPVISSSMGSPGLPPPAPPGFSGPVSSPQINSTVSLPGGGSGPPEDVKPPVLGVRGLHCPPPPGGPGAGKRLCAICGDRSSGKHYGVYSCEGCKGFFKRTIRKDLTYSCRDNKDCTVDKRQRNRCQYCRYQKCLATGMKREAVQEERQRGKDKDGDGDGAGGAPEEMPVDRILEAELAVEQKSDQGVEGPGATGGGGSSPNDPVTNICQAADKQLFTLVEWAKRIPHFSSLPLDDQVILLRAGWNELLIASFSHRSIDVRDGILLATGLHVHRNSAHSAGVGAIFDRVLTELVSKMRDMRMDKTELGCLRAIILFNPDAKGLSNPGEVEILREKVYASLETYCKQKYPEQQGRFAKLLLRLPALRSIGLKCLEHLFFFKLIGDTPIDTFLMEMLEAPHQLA

RXRα:RXRα homodimer = molecular target: T5, RXRα:RXRα homodimer (Homo sapiens, UniProt P19793); experiment: Gal4-receptor chimera transactivation assay, RXR homodimer
T5 sequence (P19793 227-458 limits assumed): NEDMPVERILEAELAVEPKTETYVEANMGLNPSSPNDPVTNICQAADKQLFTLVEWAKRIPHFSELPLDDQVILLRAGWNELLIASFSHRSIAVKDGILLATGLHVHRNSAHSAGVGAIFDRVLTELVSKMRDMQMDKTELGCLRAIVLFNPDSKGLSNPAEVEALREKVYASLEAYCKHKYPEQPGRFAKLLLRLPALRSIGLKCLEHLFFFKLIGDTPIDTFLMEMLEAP
Experimental: (§1) Briefly, CV-1 cells were transfected in 12 well multi-well plates using 0.1 μg of each receptor and 0.5 μg of reporter per well. Each well was also transfected with 0.5 μg of the β-Gal expression plasmid as an internal control for transfection efficiency. Total plasmid per well was 2 μg made up using the plasmid pGEM. […] Receptor ligand binding domains (LBDs) were fused in-frame downstream to the Gal4 cDNA to produce Gal4-receptor fusion proteins. To express only the receptor LBDs, the LBD was cloned directly downstream to the CMV promoter.
Cells were then washed 2X with PBS and lysed using Promega lysis buffer and assayed for luciferase activity and β-galactosidase activity. All results were normalized against β-Gal. Each set was done in triplicates and each experiment was carried out at least 3 separate times with similar results.

RXRα:RARα heterodimer = molecular target: T6, RXRα:RARα heterodimer (Homo sapiens, UniProt P19793); experiment: Gal4-receptor chimera transactivation assay, RXRα:RARα heterodimer
T6 sequence (P19793 227-458 limits assumed): T5 sequence (P19793 227-458 limits assumed)
T6 sequence (P10276 183-417 partner limits assumed): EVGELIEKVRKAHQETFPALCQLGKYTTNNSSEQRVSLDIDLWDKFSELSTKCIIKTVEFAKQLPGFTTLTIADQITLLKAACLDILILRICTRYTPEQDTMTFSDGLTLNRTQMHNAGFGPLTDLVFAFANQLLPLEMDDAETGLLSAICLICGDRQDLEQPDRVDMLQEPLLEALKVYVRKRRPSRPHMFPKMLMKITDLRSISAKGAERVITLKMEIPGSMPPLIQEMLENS
Experimental: as §1
Cells were then washed 2X with PBS and lysed using Promega lysis buffer and assayed for luciferase activity and β-galactosidase activity. All results were normalized against β-Gal.
The above assay system was used because reporter activity is dependent upon the binding of the Gal4 DNA binding domain to copies of its binding site, the UAS (upstream activation sequence), located upstream of the luciferase cDNA. […] Since endogenous receptors lack the Gal4 DNA binding domain, no background activation of the reporter is observed, however, Gal4-receptor LBD fusion proteins can bind the Gal4 site and be activated in a receptor ligand dependent manner. This system, therefore, completely eliminates the low background activity of endogenous receptors in CV-1 cells making it possible to test compound activity on exogenously added receptors.

RXRγ = molecular target: T7, RXRγ (Mus musculus, UniProt P28705); experiment: RXR binding, RXRγ; settings: -v- tritiated LGD1069 and tritiated 9-cis retinoic acid
T7 sequence (P28705 1-463): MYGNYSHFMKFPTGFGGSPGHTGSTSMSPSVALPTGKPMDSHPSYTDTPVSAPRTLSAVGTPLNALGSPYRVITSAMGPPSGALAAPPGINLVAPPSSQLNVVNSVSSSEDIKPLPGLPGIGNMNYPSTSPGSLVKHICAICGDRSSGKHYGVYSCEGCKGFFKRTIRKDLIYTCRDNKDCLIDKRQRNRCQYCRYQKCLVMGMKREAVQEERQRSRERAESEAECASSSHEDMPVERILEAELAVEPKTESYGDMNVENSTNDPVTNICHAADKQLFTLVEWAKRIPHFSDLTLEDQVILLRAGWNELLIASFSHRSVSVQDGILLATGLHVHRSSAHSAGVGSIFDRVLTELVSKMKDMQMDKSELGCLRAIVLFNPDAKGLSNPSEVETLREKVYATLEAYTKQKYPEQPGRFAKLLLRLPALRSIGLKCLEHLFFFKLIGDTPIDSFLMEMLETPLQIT

pEC50 (RXRα:PPARα heterodimer): 6.05 | Fold activation (RXRα:PPARα heterodimer; normalized luciferase values at 10−5M divided by values with vehicle): 9 fold | antagonism of RXR homodimer transactivation (in words) (RXR:RXR homodimer): function as antagonists | pKd (RXRα): 8.52 | pKd (RXRβ): 7.77 | Fold activation (RXRα:RXRα homodimer; CV-1 cells, 100 nM LG100268, LGD1069, 500 nM Compounds 117, 122, 130, 1 mM Compound 131, n.e. = no effect): n.e. | agonist activity on RXR homodimers in the GAL4 transfection assay (in words) (RXRα:RXRα homodimer; compound alone): inactive | antagonist activity on RXR homodimers in the GAL4 transfection assay (in words) (RXRα:RXRα homodimer; in combination with either LGD1069 or LG100268): moderate antagonist | Fold Repression (RXRα:RXRα homodimer; in combination with either LGD1069 or LG100268, 500 nM Compounds 117, 122, 130, 1 mM Compound 131): 1.5 fold | melting point: 199 to 205 °C (dec.) | Fold Repression (RXRα:RARα heterodimer; CV-1 cells, 500 nM Compound 117, in combination with TTNPB): 1.4 fold | effect on RXRα:RARα heterodimer in combination with TTNPB (in words) (RXRα:RARα heterodimer; combined with the RXR:RAR activator TTNPB, data not shown): weak repressor | agonist activity on RXRα:RARα heterodimers (in words) (RXRα:RARα heterodimer; compound alone): inactive | pKd (RXRγ): 7.77
Compound: CC1(C)CCC(C)(C)c2cc(C(=NO)c3ccc(C(=O)O)cc3)c(OCc3ccccc3)cc21 [Compound 117, cis-4-[(3-benzyloxy-5,6,7,8-tetrahydro-5,5,8,8-tetramethyl-2-naphthyl)carbonyl]benzoic acid oxime]
